Measured values as given in ChEMBL document CHEMBL1250448, “Inhibitor hijacking of Akt activation” (Nat Chem Biol, 2009).
Each block holds one molecule with its values, some of them ahead of it. Active and inactive are the calls of the source. The rule behind the calls is not given here.

Tests used:
[1] = system: RAC-alpha serine/threonine-protein kinase (Homo sapiens), P31749 [M227G]; experiment: Inhibition of myristoylated AKT1 M227G mutant expressed in HEK293T cells assessed as reduction of GSK3-beta Ser9 phosphorylation after 30 mins by immunoblotting; format: cell-based; details: HEK-293T
MCF7 = experiment: Induction of myristoylated AKT2 M225G mutant Ser473 hyperphosphorylation expressed in MCF7 cells at 2.5 uM after 30 mins by immunoblotting; format: cell-based
MiaPaCa2 [2] = experiment: Induction of myristoylated AKT2 M225G and kinase dead D289A mutant Thr308 hyperphosphorylation expressed in MiaPaCa2 cells at 2.5 uM after 30 mins by immunoblotting; format: cell-based
PC-3 = experiment: Induction of myristoylated AKT2 M225G and kinase dead D289A mutant Thr308 hyperphosphorylation expressed in PC3 cells at 2.5 uM after 30 mins by immunoblotting; format: cell-based
HEK-293T [3] = experiment: Induction of myristoylated AKT3 M229G mutant Thr308 hyperphosphorylation expressed in HEK293T cells at 2.5 uM after 30 mins by immunoblotting; format: cell-based
[4] = system: RAC-alpha serine/threonine-protein kinase (Homo sapiens), P31749 [M227G]; experiment: Induction of membrane localized myristoylated AKT1 M227G mutant Thr308 hyperphosphorylation expressed in HEK293T cells at 2.5 uM after 30 mins by immunoblotting; format: cell-based; details: HEK-293T
[5] = system: RAC-alpha serine/threonine-protein kinase (Homo sapiens), P31749 [M227G]; experiment: Induction of myristoylated AKT1 M227G mutant Ser473 hyperphosphorylation expressed in HEK293 cells after 30 mins by immunoblotting; details: HEK-293
HEK-293T [6] = experiment: Induction of myristoylated AKT3 M229G mutant Ser473 hyperphosphorylation expressed in HEK293T cells at 2.5 uM after 30 mins pretreated with pan-PI3K inhibitor PIK90 for 10 mins before compound addition by immunoblotting; format: cell-based
[7] = system: RAC-alpha serine/threonine-protein kinase (Homo sapiens), P31749 [M227G,D292A]; experiment: Induction of myristoylated AKT1 M227G and kinase dead D292A mutant Thr308 hyperphosphorylation expressed in PC3 cells at 2.5 uM after 30 mins by immunoblotting; format: cell-based; details: PC-3
[8] = system: RAC-alpha serine/threonine-protein kinase (Homo sapiens), P31749 [M227G]; experiment: Induction of myristoylated AKT1 M227G Thr308 hyperphosphorylation expressed in PC3 cells at 2.5 uM after 30 mins by immunoblotting; format: cell-based; details: PC-3
HEK-293T [9] = experiment: Induction of myristoylated AKT2 M225G and kinase dead D289A mutant Thr308 hyperphosphorylation expressed in HEK293T cells at 2.5 uM after 30 mins by immunoblotting; format: cell-based
[10] = system: RAC-alpha serine/threonine-protein kinase (Homo sapiens), P31749 [M227G,R25C]; experiment: Induction of myristoylated AKT1 M227G and R25C mutant Thr308 hyperphosphorylation expressed in HEK293T cells at 2.5 uM after 30 mins by immunoblotting; format: cell-based; details: HEK-293T
MiaPaCa2 [11] = experiment: Induction of myristoylated AKT2 M225G mutant Thr308 hyperphosphorylation expressed in MiaPaCa2 cells at 2.5 uM after 30 mins by immunoblotting; format: cell-based
HEK-293T [12] = experiment: Induction of myristoylated AKT3 M229G mutant Thr308 hyperphosphorylation expressed in HEK293T cells at 2.5 uM after 30 mins pretreated with mTOR kinase inhibitor PP242 for 10 mins before compound addition by immunoblotting; format: cell-based
HEK-293T [13] = experiment: Induction myristoylated AKT2 M225G mutant Ser473 hyperphosphorylation expressed in HEK293T cells at 2.5 uM after 30 mins pretreated with pan-PI3K inhibitor PIK90 for 10 mins before compound addition by immunoblotting; format: cell-based
[14] = system: RAC-alpha serine/threonine-protein kinase (Homo sapiens), P31749 [M227G,D292A]; experiment: Induction of myristoylated AKT1 M227G and kinase dead D292A mutant Thr308 hyperphosphorylation expressed in HEK293T cells at 2.5 uM after 30 mins by immunoblotting; format: cell-based; details: HEK-293T
[15] = system: RAC-alpha serine/threonine-protein kinase (Homo sapiens), P31749 [M227G]; experiment: Induction of AKT1 M227G Ser473 hyperphosphorylation expressed in HEK293 cells at 2.5 uM after 30 mins pretreated with allosteric AKT inhibitor Akti-1,2 10 mins before compound addition by immunoblotting
[16] = system: RAC-alpha serine/threonine-protein kinase (Homo sapiens), P31749 [M227G,R25C]; experiment: Induction of myristoylated AKT1 M227G and R25C mutant Ser473 hyperphosphorylation expressed in HEK293T cells at 2.5 uM after 30 mins by immunoblotting; format: cell-based; details: HEK-293T
[17] = system: RAC-alpha serine/threonine-protein kinase (Homo sapiens), P31749 [M227G]; experiment: Induction of myristoylated AKT1 M227G mutant Thr308 hyperphosphorylation expressed in HEK293 cells after 30 mins by immunoblotting; details: HEK-293
HEK-293T [18] = experiment: Induction of myristoylated AKT3 M229G mutant Thr308 hyperphosphorylation expressed in HEK293T cells at 2.5 uM after 30 mins pretreated with pan-PI3K inhibitor PIK90 for 10 mins before compound addition by immunoblotting; format: cell-based
[19] = target: RAC-alpha serine/threonine-protein kinase (Rattus norvegicus) (UniProt P47196); experiment: Induction AKT1 Ser473 hyperphosphorylation in insulin-induced rat L6 cells after 20 mins before insulin stimulation by immunoblotting; format: cell-based
[20] = target: Ribosomal protein S6 kinase beta-1 (Homo sapiens, UniProt P23443); experiment: Inhibition of S6K1
Chain of Ribosomal protein S6 kinase beta-1 (P23443 whole entry): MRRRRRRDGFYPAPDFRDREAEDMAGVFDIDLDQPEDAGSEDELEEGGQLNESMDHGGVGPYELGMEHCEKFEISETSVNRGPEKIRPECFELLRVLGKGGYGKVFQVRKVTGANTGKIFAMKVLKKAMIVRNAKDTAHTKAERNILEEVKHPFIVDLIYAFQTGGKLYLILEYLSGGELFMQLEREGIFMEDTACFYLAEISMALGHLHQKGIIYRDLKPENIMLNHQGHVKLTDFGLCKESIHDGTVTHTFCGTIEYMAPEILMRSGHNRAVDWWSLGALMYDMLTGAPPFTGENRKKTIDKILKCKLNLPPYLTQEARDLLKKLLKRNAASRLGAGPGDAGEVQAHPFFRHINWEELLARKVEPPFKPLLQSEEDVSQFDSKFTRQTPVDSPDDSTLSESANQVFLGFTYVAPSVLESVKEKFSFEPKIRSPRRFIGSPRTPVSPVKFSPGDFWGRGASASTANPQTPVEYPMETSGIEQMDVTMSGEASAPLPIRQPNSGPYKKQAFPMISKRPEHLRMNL

Chain of RAC-alpha serine/threonine-protein kinase (Homo sapiens), P31749 [M227G] (P31749 whole entry M227G): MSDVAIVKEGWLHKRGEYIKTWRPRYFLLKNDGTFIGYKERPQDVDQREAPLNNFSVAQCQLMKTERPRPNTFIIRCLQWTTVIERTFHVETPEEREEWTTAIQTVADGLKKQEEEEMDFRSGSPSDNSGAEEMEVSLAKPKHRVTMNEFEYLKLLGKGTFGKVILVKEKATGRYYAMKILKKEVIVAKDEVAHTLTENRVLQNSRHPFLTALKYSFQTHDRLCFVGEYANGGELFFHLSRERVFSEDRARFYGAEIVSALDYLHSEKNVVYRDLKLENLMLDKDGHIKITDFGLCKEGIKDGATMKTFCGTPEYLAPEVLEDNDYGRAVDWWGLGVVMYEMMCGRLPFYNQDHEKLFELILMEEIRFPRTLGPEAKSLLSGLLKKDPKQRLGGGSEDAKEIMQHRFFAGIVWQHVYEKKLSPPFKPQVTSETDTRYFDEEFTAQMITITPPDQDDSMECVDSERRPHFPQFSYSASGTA
Chain of RAC-alpha serine/threonine-protein kinase (Homo sapiens), P31749 [M227G,R25C] (P31749 whole entry R25C/M227G): as the sequence (P31749 whole entry M227G) above, with R25C counted along it
Chain of RAC-alpha serine/threonine-protein kinase (Homo sapiens), P31749 [M227G,D292A] (P31749 whole entry M227G/D292A): as the sequence (P31749 whole entry M227G) above, with D292A counted along it
Chain of RAC-alpha serine/threonine-protein kinase (Rattus norvegicus) (P47196 whole entry): as the sequence (P31749 whole entry M227G) above, with S2N, D46E, A50S, K112R, E117T, S137A, G227M, K389T, G410N, H415D counted along it

- inhibition [1]: Active
- Activity [4]: Active
- Activity [5]: Dose-dependent effect
- Activity [7]: Active
- Activity [8]: Active
- Activity [10]: inactive
- Activity [14]: Active
- Activity [15]: inactive
- Activity [16]: inactive
- Activity [17]: Dose-dependent effect
SMILES: CCCc1cc(-c2cncc(OC[C@@H](N)Cc3c[nH]c4ccccc34)c2)cc2c(C)n[nH]c12
- Activity (MCF7): Active
- Activity (MiaPaCa2 [2]): Active
- Activity (PC-3): Active
- Activity (HEK-293T [3]): Active
- Activity (HEK-293T [6]): inactive
- Activity (HEK-293T [9]): Active
- Activity (MiaPaCa2 [11]): Active
- Activity (HEK-293T [12]): Active
- Activity (HEK-293T [13]): inactive
- Activity (HEK-293T [18]): inactive

- Activity [19]: inactive
- IC50 [20]: 9.1 nM
SMILES: COc1ccccc1N1CCN(c2ncnc3[nH]nc(Br)c23)CC1
